For this test, the system named is Human alphaherpesvirus 1. Nature of the test: Antiviral activity against HSV1 assessed as plaque reduction at 30 to 200 […]. The test is classed as functional. Further details: scale not given: the % may be the effect or the level left.

Each structure is given as a SMILES string.

Turning to `CC1(C)C[C@H](O)C[C@@]2(C)[C@H]1CC[C@H]1C[C@H]3C[C@]12CC[C@]3(C)O[C@@H]1O[C@H](CO)[C@@H](O)[C@H](O)[C@H]1O` [STEMODINOSIDE B], the Activity worked out at 77%.
